# Measured values reported in ChEMBL document CHEMBL1130691, “Acceptor substrate-based selective inhibition of galactosyltransferases” (Bioorg Med Chem Lett, 1998).
# pKi: −log10 of the molar value.
# Biological target: T1, N-acetyllactosaminide alpha-1,3-galactosyltransferase (Sus scrofa, UniProt P50127)
# Test: Compound was tested for the inhibition porcine alpha -1,3 -galactosyl transferase (alpha-1,3-GalT); No inhibition; call rule not given here
# T1 sequence (P50127 whole entry): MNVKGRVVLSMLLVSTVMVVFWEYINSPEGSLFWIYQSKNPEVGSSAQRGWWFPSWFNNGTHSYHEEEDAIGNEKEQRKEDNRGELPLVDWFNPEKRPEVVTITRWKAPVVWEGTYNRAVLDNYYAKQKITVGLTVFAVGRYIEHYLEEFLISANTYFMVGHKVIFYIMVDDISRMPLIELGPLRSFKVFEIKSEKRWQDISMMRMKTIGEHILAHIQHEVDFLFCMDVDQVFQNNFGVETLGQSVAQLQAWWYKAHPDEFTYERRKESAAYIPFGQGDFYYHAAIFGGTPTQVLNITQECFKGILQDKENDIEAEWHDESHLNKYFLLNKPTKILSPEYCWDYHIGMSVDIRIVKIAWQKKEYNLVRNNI
row,SMILES,Ki
1,CC(=O)NC1C(Oc2ccc3cc(Br)ccc3c2)OC(CO)C(O)C1O (stereo unspecified),Not Active
2,CC(=O)NC1C(Oc2ccc3ccccc3c2)OC(CO)C(O)C1O (stereo unspecified),Not Active
3,CC(=O)NC1C(Oc2cccc3ccccc23)OC(CO)C(O)C1O (stereo unspecified),Not Active
4,COc1ccc2cc(OC3OC(CO)C(O)C(O)C3NC(C)=O)ccc2c1 (stereo unspecified),Not Active

# Biological target: T2, Beta-1,4-galactosyltransferase 1 (Bos taurus, UniProt P08037)
# T2 sequence (P08037 whole entry): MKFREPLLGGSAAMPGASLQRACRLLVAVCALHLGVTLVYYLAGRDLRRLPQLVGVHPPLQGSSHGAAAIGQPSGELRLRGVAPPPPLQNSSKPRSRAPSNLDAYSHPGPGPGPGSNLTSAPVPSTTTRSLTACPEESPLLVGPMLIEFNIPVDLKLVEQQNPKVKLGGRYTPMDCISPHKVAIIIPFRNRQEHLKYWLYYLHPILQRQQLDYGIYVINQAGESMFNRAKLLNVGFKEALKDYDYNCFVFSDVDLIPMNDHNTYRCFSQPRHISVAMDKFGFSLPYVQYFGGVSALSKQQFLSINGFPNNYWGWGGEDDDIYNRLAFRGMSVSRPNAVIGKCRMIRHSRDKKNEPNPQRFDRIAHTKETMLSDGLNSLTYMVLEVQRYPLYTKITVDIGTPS
# Test: Compound was tested for the inhibition recombinant bovine beta -1,4 -galactosyl transferase (beta-1,4-GalT); No inhibition
row,SMILES,Ki
1,CC(=O)NC1C(Oc2ccccc2)OC(CO)C(O)C1O (stereo unspecified),Not Active
2,COC(=O)CCCCCOC1OC(CO)C(O)C(O)C1NC(C)=O (stereo unspecified),Not Active
3,OC[C@@H]1O[C@@H](Oc2ccc3cc(Br)ccc3c2)[C@@H](O)[C@@H](O)[C@H]1O,Not Active
4,CC(=O)N[C@@H]1[C@H](Oc2ccc3cc(Br)ccc3c2)O[C@@H](CO)[C@@H](O[C@@H]2O[C@@H](CO)[C@H](O)[C@H](O)[C@@H]2O)[C@@H]1O,Not Active

# Biological target: T1, N-acetyllactosaminide alpha-1,3-galactosyltransferase
# Test: Compound was tested for the inhibition porcine alpha -1,3 -galactosyl transferase (alpha-1,3-GalT)
row,SMILES,pKi
1,CC(=O)N[C@@H]1[C@H](Oc2ccc3cc(Br)ccc3c2)O[C@@H](CO)[C@@H](O[C@@H]2O[C@@H](CO)[C@H](O)[C@H](O)[C@@H]2O)[C@@H]1O,5.04

# Biological target: T1, N-acetyllactosaminide alpha-1,3-galactosyltransferase
# Test: Compound was tested for the inhibition porcine alpha -1,3 -galactosyl transferase (alpha-1,3-GalT) at 0.2 mM concentration
row,SMILES,pKi
1,COC1OC(CO)C(OC2OC(CO)C(O)C(N)C2O)C(O)C1NC(C)=O (stereo unspecified),3.98

# Biological target: T2, Beta-1,4-galactosyltransferase 1
# Test: Compound was tested for the inhibition recombinant bovine beta -1,4 -galactosyl transferase (beta-1,4-GalT)
row,SMILES,pKi
1,CC(=O)NC1C(Oc2ccc3cc(Br)ccc3c2)OC(CO)C(O)C1O (stereo unspecified),5.12
2,CC(=O)NC1C(Oc2ccc3ccccc3c2)OC(CO)C(O)C1O (stereo unspecified),5.02
3,CC(=O)NC1C(Oc2cccc3ccccc23)OC(CO)C(O)C1O (stereo unspecified),4.66
4,CC(=O)NC1C(OCc2ccccc2)OC(CO)C(N)C1O (stereo unspecified),3.07
5,CO[C@@H]1O[C@@H](CO)[C@H](O)[C@H](O[C@@H]2O[C@@H](CS)[C@@H](O)[C@H](O)[C@@H]2NC(C)=O)[C@@H]1O,3.00
6,COc1ccc2cc(OC3OC(CO)C(O)C(O)C3NC(C)=O)ccc2c1 (stereo unspecified),5.46
